# Columns and labels:
# Format in all cases: in vivo
# [1] = system: Alopecurus myosuroides (ALOMY); assay: A. Herbicidal pre-emergence efficacy, ALOMY; settings: scored visually after about 3 weeks vs untreated controls
# Outline: (§1)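 Pre-emergence soil-surface spray in sandy loam pots, WP/EC in water plus 0.5% additive, 600 L/ha. Visual % damage rating after about 3 weeks in greenhouse vs. untreated; 0% = control-like, 100% = dead plants. Rates up to 1280 g/ha.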
# [2] = system: Digitaria sanguinalis (DIGSA); assay: A. Herbicidal pre-emergence efficacy, DIGSA; settings: scored visually after about 3 weeks vs untreated controls
# Outline: as §1
# [3] = system: Lolium rigidum (LOLRI); assay: A. Herbicidal pre-emergence efficacy, LOLRI
# Outline: as §1
# [4] = system: Matricaria inodora (MATIN); assay: A. Herbicidal pre-emergence efficacy, MATIN
# Outline: as §1
# [5] = system: Amaranthus retroflexus (AMARE); assay: A. Herbicidal pre-emergence efficacy, AMARE
# Outline: as §1
# [6] = system: Kochia scoparia (KCHSC); assay: B. Herbicidal post-emergence efficacy, KCHSC; settings: for Post-emergence efficacy against KCHSC in %: rated visually after about 3 weeks; for Post-emergence efficacy against KCHSC: 1280 g/ha
# Outline: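 Readout: visual % kill vs untreated, ~3 wk post-spray. Plants in sandy loam pots, treated at one-leaf stage; spray = WP/EC in water + 0.5% additive, 600 L/ha, dose ≤1280 g/ha.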
# [7] = system: Lolium rigidum (LOLRI); assay: C. Herbicidal pre-emergence efficacy, LOLRI; settings: scored after about 3 weeks
# Outline: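 Pre-emergence test: formulated compounds sprayed as aqueous suspension or emulsion with 0.5% additive at 600 l/ha onto soil covering sown seeds, at rates corresponding to 320 g/ha or less. After about 3 weeks in greenhouse, efficacy scored visually as percent versus untreated controls (100% = plants dead).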
# [8] = system: Kochia scoparia (KCHSC); assay: E. Herbicidal post-emergence efficacy, KCHSC
# Outline: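 Greenhouse weeds were treated post-emergence at the one-leaf stage, 2-3 weeks after sowing in sandy loam, with WP or EC formulations sprayed as aqueous suspension/emulsion plus 0.5% additive at 600 l/ha, at 320 g/ha or less. Efficacy was rated visually after about 3 weeks versus untreated controls (100% = dead, 0% = like control).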
# [9] = 320 g/ha, scored visually after about 3 weeks vs untreated controls
# [10] = pre-emergence, dosage 1280 g/ha
smiles,measurement,setting,value
O=S(=O)(CCC(F)(F)F)Oc1c(Cl)cccc1Oc1ncc(Cl)cn1 [Example I-38],Pre-emergence efficacy against ALOMY,[1]; 1280 g/ha,100%
same,Pre-emergence efficacy against DIGSA,[2]; 320 g/ha,100%
same,Pre-emergence efficacy against DIGSA,[2]; 1280 g/ha,100%
same,Pre-emergence efficacy against LOLRI,[3]; dosage 1280 g/ha,100%
same,Pre-emergence efficacy against MATIN,[4]; [9],100%
same,Pre-emergence efficacy against MATIN,[4]; [10],100%
same,Pre-emergence efficacy against AMARE in %,[5]; 80 g/ha,100%
same,Pre-emergence efficacy against AMARE in %,[5]; 320 g/ha,100%
same,Pre-emergence efficacy against AMARE in %,[5]; 1280 g/ha,100%
same,Post-emergence efficacy against KCHSC in %,[6]; 320 g/ha,90%
same,Post-emergence efficacy against KCHSC,[6],90%
same,Pre-emergence efficacy against LOLRI,[7]; 320 g/ha,100%
same,Post-emergence efficacy against KCHSC in %,[8]; application rate 80 g/ha,100%
same,Post-emergence efficacy against KCHSC in %,[8]; application rate 320 g/ha,100%
O=S(=O)(CCCC(F)(F)F)Oc1c(Cl)cccc1Oc1ncc(Cl)cn1 [Example I-39],Pre-emergence efficacy against ALOMY,[1]; 320 g/ha,90%
same,Pre-emergence efficacy against ALOMY,[1]; 1280 g/ha,100%
same,Pre-emergence efficacy against DIGSA,[2]; 80 g/ha,100%
same,Pre-emergence efficacy against DIGSA,[2]; 320 g/ha,100%
same,Pre-emergence efficacy against DIGSA,[2]; 1280 g/ha,100%
same,Pre-emergence efficacy against LOLRI,[3]; dosage 320 g/ha,100%
same,Pre-emergence efficacy against LOLRI,[3]; dosage 1280 g/ha,100%
same,Pre-emergence efficacy against MATIN,[4]; [9],100%
same,Pre-emergence efficacy against MATIN,[4]; [10],100%
same,Pre-emergence efficacy against AMARE in %,[5]; 80 g/ha,100%
same,Pre-emergence efficacy against AMARE in %,[5]; 320 g/ha,100%
same,Pre-emergence efficacy against AMARE in %,[5]; 1280 g/ha,100%
same,Post-emergence efficacy against KCHSC in %,[6]; 80 g/ha,90%
same,Post-emergence efficacy against KCHSC in %,[6]; 320 g/ha,90%
same,Post-emergence efficacy against KCHSC,[6],90%
same,Pre-emergence efficacy against LOLRI,[7]; 320 g/ha,100%
same,Post-emergence efficacy against KCHSC in %,[8]; application rate 80 g/ha,100%
same,Post-emergence efficacy against KCHSC in %,[8]; application rate 320 g/ha,100%
O=S(=O)(CCC(F)(F)F)Oc1c(F)cccc1Oc1ncc(Br)cn1 [Example I-40],Pre-emergence efficacy against ALOMY,[1]; 320 g/ha,90%
same,Pre-emergence efficacy against ALOMY,[1]; 1280 g/ha,100%
same,Pre-emergence efficacy against DIGSA,[2]; 80 g/ha,100%
same,Pre-emergence efficacy against DIGSA,[2]; 320 g/ha,100%
same,Pre-emergence efficacy against DIGSA,[2]; 1280 g/ha,100%
same,Pre-emergence efficacy against LOLRI,[3]; dosage 320 g/ha,100%
same,Pre-emergence efficacy against LOLRI,[3]; dosage 1280 g/ha,100%
same,Pre-emergence efficacy against MATIN,[4]; [9],100%
same,Pre-emergence efficacy against MATIN,[4]; [10],100%
same,Pre-emergence efficacy against AMARE in %,[5]; 80 g/ha,100%
same,Pre-emergence efficacy against AMARE in %,[5]; 320 g/ha,100%
same,Pre-emergence efficacy against AMARE in %,[5]; 1280 g/ha,100%
same,Post-emergence efficacy against KCHSC in %,[6]; 80 g/ha,90%
same,Post-emergence efficacy against KCHSC in %,[6]; 320 g/ha,90%
same,Post-emergence efficacy against KCHSC,[6],90%
same,Pre-emergence efficacy against LOLRI,[7]; 320 g/ha,100%
same,Post-emergence efficacy against KCHSC in %,[8]; application rate 80 g/ha,100%
same,Post-emergence efficacy against KCHSC in %,[8]; application rate 320 g/ha,100%
O=S(=O)(CCCC(F)(F)F)Oc1c(F)cccc1Oc1ncc(Br)cn1 [Example I-41],Pre-emergence efficacy against ALOMY,[1]; 1280 g/ha,100%
same,Pre-emergence efficacy against DIGSA,[2]; 80 g/ha,100%
same,Pre-emergence efficacy against DIGSA,[2]; 320 g/ha,100%
same,Pre-emergence efficacy against DIGSA,[2]; 1280 g/ha,100%
same,Pre-emergence efficacy against LOLRI,[3]; dosage 320 g/ha,100%
same,Pre-emergence efficacy against LOLRI,[3]; dosage 1280 g/ha,100%
same,Pre-emergence efficacy against MATIN,[4]; [9],100%
same,Pre-emergence efficacy against MATIN,[4]; [10],100%
same,Pre-emergence efficacy against AMARE in %,[5]; 80 g/ha,100%
same,Pre-emergence efficacy against AMARE in %,[5]; 320 g/ha,100%
same,Pre-emergence efficacy against AMARE in %,[5]; 1280 g/ha,100%
same,Post-emergence efficacy against KCHSC in %,[6]; 80 g/ha,90%
same,Post-emergence efficacy against KCHSC in %,[6]; 320 g/ha,90%
same,Post-emergence efficacy against KCHSC,[6],90%
same,Pre-emergence efficacy against LOLRI,[7]; 320 g/ha,100%
same,Post-emergence efficacy against KCHSC in %,[8]; application rate 80 g/ha,100%
same,Post-emergence efficacy against KCHSC in %,[8]; application rate 320 g/ha,100%
O=S(=O)(CCCC(F)(F)F)Oc1c(F)cccc1Oc1ncc(F)cn1 [Example I-42],Pre-emergence efficacy against ALOMY,[1]; 320 g/ha,100%
same,Pre-emergence efficacy against ALOMY,[1]; 1280 g/ha,100%
same,Pre-emergence efficacy against DIGSA,[2]; 80 g/ha,100%
same,Pre-emergence efficacy against DIGSA,[2]; 320 g/ha,100%
same,Pre-emergence efficacy against DIGSA,[2]; 1280 g/ha,100%
same,Pre-emergence efficacy against LOLRI,[3]; dosage 320 g/ha,100%
same,Pre-emergence efficacy against LOLRI,[3]; dosage 1280 g/ha,100%
same,Pre-emergence efficacy against MATIN,[4]; [9],90%
same,Pre-emergence efficacy against MATIN,[4]; [10],100%
same,Pre-emergence efficacy against AMARE in %,[5]; 80 g/ha,100%
same,Pre-emergence efficacy against AMARE in %,[5]; 320 g/ha,100%
same,Pre-emergence efficacy against AMARE in %,[5]; 1280 g/ha,100%
same,Post-emergence efficacy against KCHSC in %,[6]; 80 g/ha,90%
same,Post-emergence efficacy against KCHSC in %,[6]; 320 g/ha,100%
same,Post-emergence efficacy against KCHSC,[6],100%
same,Pre-emergence efficacy against LOLRI,[7]; 80 g/ha,100%
same,Pre-emergence efficacy against LOLRI,[7]; 320 g/ha,100%
same,Post-emergence efficacy against KCHSC in %,[8]; application rate 80 g/ha,90%
same,Post-emergence efficacy against KCHSC in %,[8]; application rate 320 g/ha,90%

# — patent US20240174618A1, “SUBSTITUTED (2-HETEROARYLOXYPHENYL)SULFONATES, SALTS THEREOF AND THEIR USE AS HERBICIDAL AGENTS” (Bayer Aktiengesellschaft, priority 2021, published 2024)
